Reference: patent US9624175B2, “Fused-bicyclic aryl quinolinone derivatives as mutant-isocitrate dehydrogenase inhibitors” (Forma Therapeutics, Inc., priority 2015, dated 2017)

Assays:
[1] = target: IDH1-R132C recombinant protein (Homo sapiens (Human), UniProt O75874, R132C); experiment: IDH1-R132C enzymatic assay (NADPH consumption, diaphorase/resazurin readout); assay type: biochemical; conditions: inhibition of NADPH consumption, 10 nM IDH1-R132C; read-out: Enzyme IDH1 R132C IC50
Experimental: (§1) Assays were performed in a 384-well black plate. An aliquot of 250 nL of compound was incubated with 10 μL of 30 nM IDH1-R132H or 10 nM IDH1-R132C recombinant protein in assay buffer (50 mM Tris pH=7.5, 150 mM NaCl, 5 mM MgCl2, 0.1% (w/v) Bovine Serum Albumin, and 0.01% Triton X-100) in each well at 25° C. for 15 minutes. After the plate was centrifuged briefly, an aliquot of 10 μL of 2 mM α-ketoglutarate and 20 μM NADPH solution prepared in assay buffer was then added to each well and the reaction was maintained at 25° C. for 45 minutes. An aliquot of 10 μL of diaphorase solution (0.15 U/mL diaphorase and 30 μM Resazurin in assay buffer) was added to each well. The plate was maintained at 25° C. for 15 minutes and then read on a plate reader with excitation and emission wavelengths at 535 nm and 590 nm, respectively. The IC50 of a given compound was calculated by fitting the dose response curve of inhibition of NADPH consumption at a given concentration with the four parameter logistic equation.

[2] = target: IDH1-R132H recombinant protein (Homo sapiens (Human), UniProt O75874, R132H); experiment: IDH1-R132H enzymatic assay (NADPH consumption, diaphorase/resazurin readout); assay type: biochemical; conditions: inhibition of NADPH consumption, 30 nM IDH1-R132H; read-out: Enzyme IDH1 R132H IC50
Experimental: as §1

Chain of IDH1-R132H recombinant protein (O75874 whole entry R132H): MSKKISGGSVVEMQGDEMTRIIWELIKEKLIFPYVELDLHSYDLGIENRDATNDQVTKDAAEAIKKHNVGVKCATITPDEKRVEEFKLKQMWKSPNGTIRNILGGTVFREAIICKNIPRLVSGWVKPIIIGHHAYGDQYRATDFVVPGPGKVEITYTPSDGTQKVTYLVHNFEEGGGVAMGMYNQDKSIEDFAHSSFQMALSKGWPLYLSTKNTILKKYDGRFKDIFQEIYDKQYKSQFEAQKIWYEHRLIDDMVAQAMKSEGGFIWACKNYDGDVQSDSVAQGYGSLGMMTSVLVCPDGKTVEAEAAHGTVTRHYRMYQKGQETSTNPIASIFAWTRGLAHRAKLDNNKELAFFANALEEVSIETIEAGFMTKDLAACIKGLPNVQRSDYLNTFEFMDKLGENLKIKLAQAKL
Chain of IDH1-R132C recombinant protein (O75874 whole entry R132C): as the sequence (O75874 whole entry R132H) above, with H132C counted along it

Compound | IC50 [1] | IC50 [2]
O=c1[nH]c2ccc(Cl)cc2cc1CNc1ccc2c(c1)OCCO2 [Compound I-33, 6-chloro-3-{[(2,3-dihydro-1,4-benzodioxin-6-yl)amino]methyl}-1,2-dihydroquinolin-2-one] |  | > 10000 nM
COc1ccc2[nH]c(=O)c(CNc3ccc4cn[nH]c4c3)cc2c1 [Compound I-34, 3-{[(1H-indazol-6-yl)amino]methyl}-6-methoxy-1,2-dihydroquinolin-2-one] |  | > 10000 nM
COc1ccc2[nH]c(=O)c(CNc3ccc4nc(C)ccc4c3)cc2c1 [Compound I-35, 6-methoxy-3-{[(2-methylquinolin-6-yl)amino]methyl}-1,2-dihydroquinolin-2-one] |  | > 10000 nM
COc1ccc2[nH]c(=O)c(CNc3ccc4ncsc4c3)cc2c1 [Compound I-36, 3-{[(1,3-benzothiazol-6-yl)amino]methyl}-6-methoxy-1,2-dihydroquinolin-2-one] |  | > 10000 nM
Cc1ccc2cc(NCc3cc4cc(C)c(C)cc4[nH]c3=O)ccc2n1 [Compound I-37, 6,7-dimethyl-3-{[(2-methylquinolin-6-yl)amino]methyl}-1,2-dihydroquinolin-2-one] |  | > 10000 nM
O=c1[nH]c2ccc(Cl)cc2cc1CNc1ccc2[nH]ncc2c1 [Compound I-38, 6-chloro-3-{[(1H-indazol-5-yl)amino]methyl}-1,2-dihydroquinolin-2-one] |  | > 10000 nM
COc1ccc2[nH]c(=O)c(CNc3ccc4ncccc4c3)cc2c1 [Compound I-39, 6-methoxy-3-{[(quinolin-6-yl)amino]methyl}-1,2-dihydroquinolin-2-one] |  | > 10000 nM
Cc1cc2cc(CNc3ccc4ncsc4c3)c(=O)[nH]c2cc1C [Compound I-40, 3-{[(1,3-benzothiazol-6-yl)amino]methyl}-6,7-dimethyl-1,2-dihydroquinolin-2-one] |  | > 10000 nM
CC(C)(C)c1ccc2[nH]c(=O)c(CNc3ccc4[nH]ncc4c3)cc2c1 [Compound I-41, 6-tert-butyl-3-{[(1H-indazol-5-yl)amino]methyl}-1,2-dihydroquinolin-2-one] |  | 1000 to 10000 nM
C[C@H](Nc1nccc2c1CCN2S(C)(=O)=O)c1cc2cc(Cl)ccc2[nH]c1=O [Compound I-43, 6-chloro-3-[(1S)-1-({1-methanesulfonyl-1H,2H,3H-pyrrolo[3,2-c]pyridin-4-yl}amino)ethyl]-1,2-dihydroquinolin-2-one] |  | 1000 to 10000 nM
CC(=O)N1CCOc2c1ccnc2N[C@@H](C)c1cc2cc(Cl)ccc2[nH]c1=O [Compound I-44, 3-[(1S)-1-({1-acetyl-1H,2H,3H-pyrido[3,4-b][1,4]oxazin-5-yl}amino)ethyl]-6-chloro-1,2-dihydroquinolin-2-one] | > 10000 nM | 1000 to 10000 nM
C[C@H](Nc1ncc2cn[nH]c2n1)c1cc2cc(Cl)ccc2[nH]c1=O [Compound I-45, 6-chloro-3-[(1S)-1-({1H-pyrazolo[3,4-d]pyrimidin-6-yl}amino)ethyl]-1,2-dihydroquinolin-2-one] | 1000 to 10000 nM | 100 to 1000 nM
COc1cc2[nH]c(=O)c([C@@H](C)Nc3ncc4c(n3)N(C)C(=O)OC4)cc2cc1Cl [Compound I-52, 6-chloro-7-methoxy-3-[(1R)-1-({1-methyl-2-oxo-1H,2H,4H-pyrimido[4,5-d][1,3]oxazin-7-yl}amino)ethyl]-1,2-dihydroquinolin-2-one] | 1000 to 10000 nM | 100 to 1000 nM
C[C@@H](Nc1ncc2c(n1)N(C)C(=O)OC2)c1cc2cc(Cl)c(F)cc2[nH]c1=O [Compound I-53, 6-chloro-7-fluoro-3-[(1R)-1-({1-methyl-2-oxo-1H,2H,4H-pyrimido[4,5-d][1,3]oxazin-7-yl}amino)ethyl]-1,2-dihydroquinolin-2-one] | > 10000 nM | 1000 to 10000 nM

Results, then the molecule that gave them:

IC50 [1] | IC50 [2] | Compound
< 100 nM | < 100 nM | COc1cc2[nH]c(=O)c(C(C)Nc3ncc4c(n3)N(C)C(=O)OC4)cc2cc1Cl (racemic) [Compound I-50, 6-chloro-7-methoxy-3-[1-({1-methyl-2-oxo-1H,2H,4H-pyrimido[4,5-d][1,3]oxazin-7-yl}amino)ethyl]-1,2-dihydroquinolin-2-one]
100 to 1000 nM | 100 to 1000 nM | O=c1[nH]c2ccc(Cl)cc2cc1CNc1cccc2ocnc12 [Compound I-1, 3-{[(1,3-benzoxazol-4-yl)amino]methyl}-6-chloro-1,2-dihydroquinolin-2-one]
> 10000 nM | 100 to 1000 nM | O=c1ccc2cc(NCc3cc4cc(Cl)ccc4[nH]c3=O)ccc2o1 [Compound I-4, 6-chloro-3-{[(2-oxo-2H-chromen-6-yl)amino]methyl}-1,2-dihydroquinolin-2-one]
1000 to 10000 nM | 100 to 1000 nM | CC(=O)N1CCc2c1ccnc2N[C@@H](C)c1cc2cc(Cl)ccc2[nH]c1=O [Compound I-42, 3-[(1S)-1-({1-acetyl-1H,2H,3H-pyrrolo[3,2-c]pyridin-4-yl}amino)ethyl]-6-chloro-1,2-dihydroquinolin-2-one]
< 100 nM | < 100 nM | CC(C)CN1C(=O)OCc2cnc(N[C@@H](C)c3cc4cc(Cl)ccc4[nH]c3=O)nc21 [Compound I-46, 6-chloro-3-[(1S)-1-{[1-(2-methylpropyl)-2-oxo-1H,2H,4H-pyrimido[4,5-d][1,3]oxazin-7-yl]amino}ethyl]-1,2-dihydroquinolin-2-one]
< 100 nM | < 100 nM | C[C@H](Nc1ncc2c(n1)N(C)C(=O)OC2)c1cc2cc(Cl)ccc2[nH]c1=O [Compound I-47, 6-chloro-3-[(1S)-1-({1-methyl-2-oxo-1H,2H,4H-pyrimido[4,5-d][1,3]oxazin-7-yl}amino)ethyl]-1,2-dihydroquinolin-2-one]
< 100 nM | < 100 nM | C[C@H](Nc1ncc2c(n1)N(C)C(=O)OC2)c1cc2cc(Cl)c(OCc3ccccn3)cc2[nH]c1=O [Compound I-48, 6-chloro-3-[(1S)-1-({1-methyl-2-oxo-1H,2H,4H-pyrimido[4,5-d][1,3]oxazin-7-yl}amino)ethyl]-7-(pyridin-2-ylmethoxy)-1,2-dihydroquinolin-2-one]
100 to 1000 nM | < 100 nM | C[C@H](Nc1ncc2c(n1)NC(=O)OC2)c1cc2cc(Cl)ccc2[nH]c1=O [Compound I-49, 6-chloro-3-[(1S)-1-({2-oxo-1H,2H,4H-pyrimido[4,5-d][1,3]oxazin-7-yl}amino)ethyl]-1,2-dihydroquinolin-2-one]
< 100 nM | < 100 nM | COc1cc2[nH]c(=O)c([C@H](C)Nc3ncc4c(n3)N(C)C(=O)OC4)cc2cc1Cl [Compound I-51, 6-chloro-7-methoxy-3-[(1S)-1-({1-methyl-2-oxo-1H,2H,4H-pyrimido[4,5-d][1,3]oxazin-7-yl}amino)ethyl]-1,2-dihydroquinolin-2-one]
< 100 nM | < 100 nM | CC(C)Cn1c(=O)oc2cnc(N[C@@H](C)c3cc4cc(Cl)ccc4[nH]c3=O)nc21 [Compound I-55, 6-chloro-3-[(1S)-1-{[3-(2-methylpropyl)-2-oxo-2H,3H-[1,3]oxazolo[4,5-d]pyrimidin-5-yl]amino}ethyl]-1,2-dihydroquinolin-2-one]
100 to 1000 nM | < 100 nM | C[C@H](Nc1ncc2oc(=O)[nH]c2n1)c1cc2cc(Cl)ccc2[nH]c1=O [Compound I-56, 6-chloro-3-[(1S)-1-({2-oxo-2H,3H-[1,3]oxazolo[4,5-d]pyrimidin-5-yl}amino)ethyl]-1,2-dihydroquinolin-2-one]
